Data on 16 molecules can be found in PMC9279635 (Acta Pharmaceutica Sinica. B, 2021).

Type in all cases: biochemical
The target of experiment [1] is DDR1 (Homo sapiens, UniProt Q08345). The experiment can be described thus: ELISA kinase assay, DDR1. (An ELISA detects its analyte on a solid surface through an enzyme-linked reagent.)
Experiment [2] addresses T1, Flt-3 (Homo sapiens, UniProt P36888).
T1 sequence (P36888 27-993): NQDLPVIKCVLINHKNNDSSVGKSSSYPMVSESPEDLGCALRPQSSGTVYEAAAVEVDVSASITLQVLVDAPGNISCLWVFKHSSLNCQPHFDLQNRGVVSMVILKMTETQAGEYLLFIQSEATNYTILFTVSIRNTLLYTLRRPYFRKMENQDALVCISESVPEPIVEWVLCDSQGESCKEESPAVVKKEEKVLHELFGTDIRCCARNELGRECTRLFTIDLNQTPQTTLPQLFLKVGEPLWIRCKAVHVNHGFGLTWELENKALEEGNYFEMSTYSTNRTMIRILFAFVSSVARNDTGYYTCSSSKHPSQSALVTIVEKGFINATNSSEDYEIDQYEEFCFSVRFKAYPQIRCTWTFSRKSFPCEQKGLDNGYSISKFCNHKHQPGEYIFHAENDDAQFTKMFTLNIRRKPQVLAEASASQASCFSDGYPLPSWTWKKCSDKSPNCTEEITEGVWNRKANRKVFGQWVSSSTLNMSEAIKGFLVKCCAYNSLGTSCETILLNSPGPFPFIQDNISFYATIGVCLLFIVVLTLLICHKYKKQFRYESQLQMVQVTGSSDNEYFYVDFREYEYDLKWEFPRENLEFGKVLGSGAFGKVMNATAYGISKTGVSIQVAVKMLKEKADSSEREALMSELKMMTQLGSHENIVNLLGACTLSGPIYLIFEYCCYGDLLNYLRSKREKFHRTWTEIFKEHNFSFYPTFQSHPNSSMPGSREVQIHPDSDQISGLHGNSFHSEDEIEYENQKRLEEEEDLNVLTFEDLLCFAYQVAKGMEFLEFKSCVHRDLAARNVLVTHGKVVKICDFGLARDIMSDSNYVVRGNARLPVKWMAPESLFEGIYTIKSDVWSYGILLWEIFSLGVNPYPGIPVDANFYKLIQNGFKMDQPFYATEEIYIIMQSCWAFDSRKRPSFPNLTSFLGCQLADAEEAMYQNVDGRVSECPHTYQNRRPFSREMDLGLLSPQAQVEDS
The experiment can be described thus: ELISA kinase assay, Flt-3. The conditions noted are these: for inhibition at 0.1 µM: read-out: Flt-3 inhibition@100 nmol/L; for inhibition at 0.01 µM: read-out: Flt-3 inhibition @10 nmol/L.

Experiment [3] deals with RET (Homo sapiens, UniProt P07949). Kind of experiment: ELISA kinase assay, RET. Particulars: for inhibition at 0.1 µM: read-out: RET inhibition @100 nmol/L; for inhibition at 0.01 µM: read-out: RET inhibition @10 nmol/L.
The target in experiment [4] is T2, DDR2 (Homo sapiens, UniProt Q16832).
T2 sequence (Q16832 22-855): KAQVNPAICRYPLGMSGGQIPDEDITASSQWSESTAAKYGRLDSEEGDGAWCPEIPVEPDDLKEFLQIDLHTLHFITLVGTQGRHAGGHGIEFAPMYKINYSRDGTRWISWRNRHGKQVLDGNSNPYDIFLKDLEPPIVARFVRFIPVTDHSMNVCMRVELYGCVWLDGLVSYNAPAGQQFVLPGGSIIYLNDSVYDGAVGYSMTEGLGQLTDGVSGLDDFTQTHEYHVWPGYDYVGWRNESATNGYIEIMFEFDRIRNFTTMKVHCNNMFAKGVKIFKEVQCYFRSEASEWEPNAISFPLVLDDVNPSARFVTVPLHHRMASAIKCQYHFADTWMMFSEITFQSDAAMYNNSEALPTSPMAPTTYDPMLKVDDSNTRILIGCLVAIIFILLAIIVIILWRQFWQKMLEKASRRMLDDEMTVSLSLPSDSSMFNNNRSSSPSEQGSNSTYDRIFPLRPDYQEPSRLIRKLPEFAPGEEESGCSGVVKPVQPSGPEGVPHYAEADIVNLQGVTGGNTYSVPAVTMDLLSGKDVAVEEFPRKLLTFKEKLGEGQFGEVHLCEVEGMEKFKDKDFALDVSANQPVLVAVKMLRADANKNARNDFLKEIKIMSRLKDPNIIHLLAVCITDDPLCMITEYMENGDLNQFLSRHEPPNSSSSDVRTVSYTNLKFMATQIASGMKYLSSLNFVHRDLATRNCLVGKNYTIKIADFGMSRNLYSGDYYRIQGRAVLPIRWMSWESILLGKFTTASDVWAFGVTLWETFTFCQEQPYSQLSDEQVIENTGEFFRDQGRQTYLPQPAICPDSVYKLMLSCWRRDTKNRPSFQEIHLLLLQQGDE
The experiment can be described thus: ELISA kinase assay, DDR2.

The target of experiment [5] is KDR (Homo sapiens, UniProt P35968). Kind of experiment: ELISA kinase assay, KDR. Particulars: read-out: KDR inhibition @100 nmol/L.
The mark [6] stands for this setting: DDR2 IC50, two separate experiments.

Usually IC50 stands for the concentration that gives 50% inhibition.

Like-named read-outs stand apart in the source and are kept apart here.

KDR, sequence (P35968 20-1356): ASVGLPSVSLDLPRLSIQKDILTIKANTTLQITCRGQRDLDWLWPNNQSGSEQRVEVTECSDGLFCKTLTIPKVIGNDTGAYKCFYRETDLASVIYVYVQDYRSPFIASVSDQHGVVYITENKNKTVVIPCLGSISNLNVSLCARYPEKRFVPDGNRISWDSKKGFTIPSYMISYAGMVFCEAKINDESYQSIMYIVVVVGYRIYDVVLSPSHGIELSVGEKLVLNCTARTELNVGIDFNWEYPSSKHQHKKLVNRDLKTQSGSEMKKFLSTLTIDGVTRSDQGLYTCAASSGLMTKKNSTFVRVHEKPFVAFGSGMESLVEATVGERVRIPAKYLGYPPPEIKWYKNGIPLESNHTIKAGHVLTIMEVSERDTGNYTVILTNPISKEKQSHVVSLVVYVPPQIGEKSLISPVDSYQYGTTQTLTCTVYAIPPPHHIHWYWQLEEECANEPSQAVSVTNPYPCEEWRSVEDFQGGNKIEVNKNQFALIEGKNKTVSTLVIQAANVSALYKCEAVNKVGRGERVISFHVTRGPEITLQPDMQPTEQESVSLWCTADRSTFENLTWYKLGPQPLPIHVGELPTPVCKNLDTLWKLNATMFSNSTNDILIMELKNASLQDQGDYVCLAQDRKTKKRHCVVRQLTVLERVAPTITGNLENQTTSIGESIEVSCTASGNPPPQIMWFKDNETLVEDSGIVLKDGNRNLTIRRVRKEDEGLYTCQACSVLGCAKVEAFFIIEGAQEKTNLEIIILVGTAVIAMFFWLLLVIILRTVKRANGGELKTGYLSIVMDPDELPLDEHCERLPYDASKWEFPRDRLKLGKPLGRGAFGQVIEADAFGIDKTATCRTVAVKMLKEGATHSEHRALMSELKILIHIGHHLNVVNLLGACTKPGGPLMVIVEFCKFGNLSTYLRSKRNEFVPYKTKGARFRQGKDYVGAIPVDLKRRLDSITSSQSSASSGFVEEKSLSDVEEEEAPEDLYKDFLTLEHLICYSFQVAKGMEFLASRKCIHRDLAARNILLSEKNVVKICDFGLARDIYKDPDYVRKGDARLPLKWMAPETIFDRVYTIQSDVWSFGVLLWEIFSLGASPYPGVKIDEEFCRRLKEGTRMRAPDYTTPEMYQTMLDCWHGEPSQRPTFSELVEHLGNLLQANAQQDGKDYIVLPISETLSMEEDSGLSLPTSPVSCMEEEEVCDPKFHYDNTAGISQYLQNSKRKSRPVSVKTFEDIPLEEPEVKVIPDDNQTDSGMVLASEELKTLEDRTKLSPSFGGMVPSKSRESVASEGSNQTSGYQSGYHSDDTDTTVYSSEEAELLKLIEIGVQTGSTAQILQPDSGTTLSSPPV
RET, sequence (P07949 29-1114): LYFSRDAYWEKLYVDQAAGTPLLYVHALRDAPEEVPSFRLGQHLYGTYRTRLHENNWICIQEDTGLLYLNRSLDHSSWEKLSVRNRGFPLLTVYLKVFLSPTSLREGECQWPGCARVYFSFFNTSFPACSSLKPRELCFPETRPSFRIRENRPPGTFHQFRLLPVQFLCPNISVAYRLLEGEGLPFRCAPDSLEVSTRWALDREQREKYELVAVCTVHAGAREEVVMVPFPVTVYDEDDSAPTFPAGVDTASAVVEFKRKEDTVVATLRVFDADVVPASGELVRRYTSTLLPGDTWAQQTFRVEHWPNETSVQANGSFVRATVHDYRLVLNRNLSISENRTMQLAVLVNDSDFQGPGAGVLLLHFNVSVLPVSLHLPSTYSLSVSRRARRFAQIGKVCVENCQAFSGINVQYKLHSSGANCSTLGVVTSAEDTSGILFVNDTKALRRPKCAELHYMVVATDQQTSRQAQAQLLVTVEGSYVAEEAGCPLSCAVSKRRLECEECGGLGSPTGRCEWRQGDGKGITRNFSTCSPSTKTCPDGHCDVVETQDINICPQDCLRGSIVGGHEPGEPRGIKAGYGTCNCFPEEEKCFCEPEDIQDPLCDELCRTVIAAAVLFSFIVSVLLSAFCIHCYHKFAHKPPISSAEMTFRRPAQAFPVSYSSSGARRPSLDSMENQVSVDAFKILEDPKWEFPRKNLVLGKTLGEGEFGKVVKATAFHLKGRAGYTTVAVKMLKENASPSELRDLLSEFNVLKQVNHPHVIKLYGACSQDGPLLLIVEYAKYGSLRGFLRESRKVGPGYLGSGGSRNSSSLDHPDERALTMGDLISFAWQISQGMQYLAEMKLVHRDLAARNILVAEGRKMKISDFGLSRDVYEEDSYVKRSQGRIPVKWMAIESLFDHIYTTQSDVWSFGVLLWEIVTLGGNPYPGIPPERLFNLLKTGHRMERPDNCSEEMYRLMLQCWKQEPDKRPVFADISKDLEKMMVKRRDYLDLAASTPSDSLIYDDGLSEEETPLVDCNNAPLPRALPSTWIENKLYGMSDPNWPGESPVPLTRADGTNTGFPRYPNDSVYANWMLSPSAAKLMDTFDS
DDR1, sequence (Q08345 19-913): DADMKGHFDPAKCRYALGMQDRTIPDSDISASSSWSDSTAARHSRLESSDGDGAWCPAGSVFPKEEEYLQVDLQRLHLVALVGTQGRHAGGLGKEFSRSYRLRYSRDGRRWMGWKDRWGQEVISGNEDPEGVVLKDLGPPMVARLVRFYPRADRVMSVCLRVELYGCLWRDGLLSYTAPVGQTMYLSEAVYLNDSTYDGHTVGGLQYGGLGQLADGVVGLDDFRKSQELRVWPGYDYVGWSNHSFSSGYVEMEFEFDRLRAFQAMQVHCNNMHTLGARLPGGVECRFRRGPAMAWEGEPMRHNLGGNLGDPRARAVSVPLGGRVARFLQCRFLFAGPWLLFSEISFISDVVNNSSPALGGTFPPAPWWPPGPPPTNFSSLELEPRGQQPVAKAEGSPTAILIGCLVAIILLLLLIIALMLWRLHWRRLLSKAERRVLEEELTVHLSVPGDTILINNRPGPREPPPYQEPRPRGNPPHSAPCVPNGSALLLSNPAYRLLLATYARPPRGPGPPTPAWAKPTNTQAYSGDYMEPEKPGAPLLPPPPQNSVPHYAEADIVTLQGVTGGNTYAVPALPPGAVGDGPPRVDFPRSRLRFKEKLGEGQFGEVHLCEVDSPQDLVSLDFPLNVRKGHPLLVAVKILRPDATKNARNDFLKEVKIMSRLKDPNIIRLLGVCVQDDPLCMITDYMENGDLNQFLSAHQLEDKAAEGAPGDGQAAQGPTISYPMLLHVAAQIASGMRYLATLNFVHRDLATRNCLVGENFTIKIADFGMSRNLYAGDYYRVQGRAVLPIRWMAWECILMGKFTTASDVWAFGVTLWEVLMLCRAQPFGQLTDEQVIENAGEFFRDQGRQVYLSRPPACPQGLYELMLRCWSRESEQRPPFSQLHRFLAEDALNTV

In turn, `Cc1ccc(C(=O)Nc2cccc(C(F)(F)F)c2)cc1-c1ccc2cn[nH]c2c1` [Compound 7, 3-(1H-Indazol-6-yl)-4-methyl-N-(3-(trifluoromethyl)phenyl)benzamide] yielded an IC50 in experiment [1] of 9.74 nM.
Take `CCc1ccc(C(=O)Nc2cccc(C(F)(F)F)c2)cc1-c1ccc2nc(Nc3cnn(C)c3)ncc2c1` [Compound 32, 4-Ethyl-3-(2-((1-methyl-1H-pyrazol-4-yl)amino)quinazolin-6-yl)-N-(3-(trifluoromethyl)phenyl)benzamide]: the values for the inhibition at 0.1 µM in experiment [2] and in experiment [3] were 61.8% and 77.1%, respectively. In experiment [4] (setting [6]), this molecule had an IC50 of 4.1 ± 0.7 nM.
Take `CC(=O)N1CCN(Cc2cc(NC(=O)c3ccc(C)c(-c4ccc5nc(Nc6cnn(C)c6)ncc5c4)c3)cc(C(F)(F)F)c2)CC1` [Compound 28, N-(3-((4-Acetylpiperazin-1-yl)methyl)-5-(trifluoromethyl)phenyl)-4-methyl-3-(2-((1-methyl-1H-pyrazol-4-yl)amino)quinazolin-6-yl)benzamide]: the inhibition at 0.01 µM was found to be 92.4% in experiment [2] and 91.8% in experiment [3]. This molecule showed an IC50 in experiment [4] (setting [6]) of 1.8 ± 0.1 nM.
With `Cc1ccc(C(=O)Nc2cc(CN3CCN(C4CCCC4)CC3)cc(C(F)(F)F)c2)cc1-c1ccc2nc(Nc3cnn(C)c3)ncc2c1` [Compound 27, N-(3-((4-Cyclopentylpiperazin-1-yl)methyl)-5-(trifluoromethyl)phenyl)-4-methyl-3-(2-((1-methyl-1H-pyrazol-4-yl)amino)quinazolin-6-yl)benzamide], the values for the inhibition at 0.01 µM in experiment [2] and in experiment [3] were 94.4% and 92.8%, respectively. In experiment [4] (setting [6]), this molecule gave an IC50 of 3.1 ± 1 nM.
Regarding “N-(3-((3,5-Dimethylpiperazin-1-yl)methyl)-5-(trifluoromethyl)phenyl)-4-methyl-3-(2-((1-methyl-1H-pyrazol-4-yl)amino)quinazolin-6-yl)benzamide [Compound 29]”, in experiment [2] (10 nmol/L), the “Flt-3 inhibition @10 nmol/L” value came to 93.8%. For the same molecule, in experiment [3] (10 nmol/L), the “RET inhibition @10 nmol/L” value was 91.6%. In addition, in experiment [4] (read-out: DDR2 IC50, two separate experiments), the IC50 is 2.7 ± 0.2 nM.
`Cc1ccc(C(=O)Nc2cc(CN3CCCN(C)CC3)cc(C(F)(F)F)c2)cc1-c1ccc2nc(Nc3cnn(C)c3)ncc2c1` [Compound 30, 4-Methyl-N-(3-((4-methyl-1,4-diazepan-1-yl)methyl)-5-(trifluoromethyl)phenyl)-3-(2-((1-methyl-1H-pyrazol-4-yl)amino)quinazolin-6-yl)benzamide]: the inhibition at 0.01 µM was 97% in experiment [2] and 93.2% in experiment [3]. The concentration for half-maximal inhibition (IC50) in experiment [4] (setting [6]) worked out at 2.8 ± 0.2 nM.
With `CC(C)c1ccc(C(=O)Nc2cccc(C(F)(F)F)c2)cc1-c1ccc2nc(Nc3cnn(C)c3)ncc2c1` [Compound 34, 4-Isopropyl-3-(2-((1-methyl-1H-pyrazol-4-yl)amino)quinazolin-6-yl)-N-(3-(trifluoromethyl)phenyl)benzamide], the inhibition at 0.1 µM in experiment [2] is 56.8%; in experiment [3] it was 54.5%.
As for `COc1ccc(C(=O)Nc2cccc(C(F)(F)F)c2)cc1-c1ccc2nc(Nc3cnn(C)c3)ncc2c1` [Compound 33, 4-Methoxy-3-(2-((1-methyl-1H-pyrazol-4-yl)amino)quinazolin-6-yl)-N-(3-(trifluoromethyl)phenyl)benzamide], the values for the inhibition at 0.1 µM in experiment [2] and in experiment [3] were 59.7% and 41.3%, respectively. Also, the IC50 in experiment [4] (setting [6]) stood at 2.3 ± 0.5 nM.
With `Cc1ccc(C(=O)Nc2cc(CN3CCN(C(C)C)CC3)cc(C(F)(F)F)c2)cc1-c1ccc2nc(Nc3cnn(C)c3)ncc2c1` [Compound 26, N-(3-((4-Isopropylpiperazin-1-yl)methyl)-5-(trifluoromethyl)phenyl)-4-methyl-3-(2-((1-methyl-1H-pyrazol-4-yl)amino)quinazolin-6-yl)benzamide], the values for the inhibition at 0.01 µM in experiment [2] and in experiment [3] were 90.1% and 92.7%, respectively. For the same molecule, the IC50 in experiment [4] (setting [6]) was found to be 2.2 ± 0.3 nM.
As to `Cc1ccc(C(=O)NCc2cccc(C(F)(F)F)c2)cc1-c1ccc2nc(Nc3cnn(C)c3)ncc2c1` [Compound 38, 4-Methyl-3-(2-((1-methyl-1H-pyrazol-4-yl)amino)quinazolin-6-yl)-N-(3-(trifluoromethyl)benzyl)benzamide], the inhibition at 0.1 µM in experiment [5] worked out at 94%.
Still for that read-out and setting: to `Cc1ccc(NC(=O)Nc2cccc(C(F)(F)F)c2)cc1-c1ccc2nc(Nc3cnn(C)c3)ncc2c1` [Compound 37, 1-(4-Methyl-3-(2-((1-methyl-1H-pyrazol-4-yl)amino)quinazolin-6-yl)phenyl)-3-(3-(trifluoromethyl)phenyl)urea] belongs 89.3%.
`Cc1ccc(C(=O)Nc2cc(CN3C[C@H]4CC[C@@H](C3)N4C)cc(C(F)(F)F)c2)cc1-c1ccc2nc(Nc3cnn(C)c3)ncc2c1` [Compound 31, 4-Methyl-3-(2-((1-methyl-1H-pyrazol-4-yl)amino)quinazolin-6-yl)-N-(3-(((1R,5S)-8-methyl-3,8-diazabicyclo[3.2.1]octan-3-yl)methyl)-5-(trifluoromethyl)phenyl)benzamide]: the values for the inhibition at 0.01 µM in experiment [2] and in experiment [3] were 96% and 95%, respectively. For the same molecule, in experiment [4] (setting [6]), the IC50 stood at 2.9 ± 0.2 nM.
As for `Cc1ccc(NC(=O)C(C)c2cccc(C(F)(F)F)c2)cc1-c1ccc2nc(Nc3cnn(C)c3)ncc2c1` (stereo not shown) [Compound 39, N-(4-Methyl-3-(2-((1-methyl-1H-pyrazol-4-yl)amino)quinazolin-6-yl)phenyl)-2-(3-(trifluoromethyl)phenyl)propanamide], the inhibition at 0.1 µM in experiment [5] was found to be 70.2%.
`Cc1ccc(C(C)NC(=O)c2cccc(C(F)(F)F)c2)cc1-c1ccc2nc(Nc3cnn(C4CC4)c3)ncc2c1` (stereo not shown) [Compound 43, N-(1-(3-(2-((1-Cyclopropyl-1H-pyrazol-4-yl)amino)quinazolin-6-yl)-4-methylphenyl)ethyl)-3-(trifluoromethyl)benzamide]: the inhibition at 0.1 µM in experiment [5] was found to be 26.9%. The same molecule yielded an IC50 in experiment [4] (setting [6]) of 4.3 ± 1 nM.
For `Cc1ccc(C(=O)Nc2cc(CN3CCN(C)CC3)cc(C(F)(F)F)c2)cc1-c1ccc2nc(Nc3cnn(C)c3)ncc2c1` [Compound 25, 4-Methyl-3-(2-((1-methyl-1H-pyrazol-4-yl)amino)quinazolin-6-yl)-N-(3-((4-methylpiperazin-1-yl)methyl)-5-(trifluoromethyl)phenyl)benzamide], the inhibition at 0.01 µM is 93.5% in experiment [2] and 93.9% in experiment [3]. In experiment [4] (setting [6]), this molecule displayed an IC50 of 1.7 ± 0.3 nM.
With `Cn1cc(Nc2ncc3cc(-c4cc(C(=O)Nc5cccc(C(F)(F)F)c5)ccc4C4CC4)ccc3n2)cn1` [Compound 35, 4-Cyclopropyl-3-(2-((1-methyl-1H-pyrazol-4-yl)amino)quinazolin-6-yl)-N-(3-(trifluoromethyl)phenyl)benzamide], the inhibition at 0.1 µM in experiment [2] stood at 37.1%; in experiment [3], 50.7%.
